From patent publication US20230286955A1, “INHIBITORS OF THEM1” (Cornell University, priority 2022, published 2023)
Entries after “also recorded” stand apart in the source; their conditions may differ.

Assays:
full-length human Acot12 = full-length human Acot12 (Homo sapiens, UniProt Q8WYK0); test: biochemical
in vitro = details: C57BL/6, mouse, primary brown adipocytes
primary hepatocytes [1] = test: Oxygen consumption rates (OCR) in primary hepatocytes after palmitate; format: cell-based, mouse; details: compound 33 μM, palmitate-BSA 300 μM
Experimental: (§1) Primary hepatocytes cultured were prepared from 6- to 14-w old wild type, L-Them1Tg and Them1^−/− mice following anesthesia with ketamine and xylazine. Livers were perfused through the portal vein with 20 mL of liver perfusion medium (Thermo Fisher; Walham, MA) followed by 40 mL of liver digestion medium (Thermo Fisher; Walham, MA). Primary hepatocytes were gently disrupted from the liver capsule into hepatocyte wash medium (Thermo Fisher; Waltham, MA), filtered through a 70 μm cell strainer and then spun down at 30×g for 4 min at 4° C. Primary hepatocytes were cultured in William's Medium E (Thermo Fisher; Waltham, MA) supplemented with 1% penicillin/streptomycin and 10% fetal bovine serum. […] Cultured primary hepatocytes were maintained in a cell culture incubator at 37° C. with 5% CO2.
In primary hepatocytes, values of OCR were measured using a Seahorse XF24 extracellular flux analyzer (Agilent Technologies; Santa Clara, CA). […] OCR values were measured before and after the exposure of cells to palmitic acid conjugated with fatty acid-free BSA (300 μM) and normalized with total live cell count calculated through staining with NucRed Live probe (Thermo Fisher; Waltham, MA) measured at 715 nm emission and 623 nm excitation using a SpectraMax i3X plate reader (Molecular Devices; San Jose; CA).

[2] = target: T1, recombinant His-tagged human Them1 (Homo sapiens, UniProt Q8WXI4); test: Assay for reversibility of Them1 inhibition (dialysis); format: biochemical; details: compounds […], C14-CoA 25 μM, 18 h dialysis
T1 construct: Reaction labeling recombinant full-length Them1; made in house; host or cells: E. coli Shuffle T7
T1 sequence (Q8WXI4 14-594 isoform Q8WXI4-2 limits assumed): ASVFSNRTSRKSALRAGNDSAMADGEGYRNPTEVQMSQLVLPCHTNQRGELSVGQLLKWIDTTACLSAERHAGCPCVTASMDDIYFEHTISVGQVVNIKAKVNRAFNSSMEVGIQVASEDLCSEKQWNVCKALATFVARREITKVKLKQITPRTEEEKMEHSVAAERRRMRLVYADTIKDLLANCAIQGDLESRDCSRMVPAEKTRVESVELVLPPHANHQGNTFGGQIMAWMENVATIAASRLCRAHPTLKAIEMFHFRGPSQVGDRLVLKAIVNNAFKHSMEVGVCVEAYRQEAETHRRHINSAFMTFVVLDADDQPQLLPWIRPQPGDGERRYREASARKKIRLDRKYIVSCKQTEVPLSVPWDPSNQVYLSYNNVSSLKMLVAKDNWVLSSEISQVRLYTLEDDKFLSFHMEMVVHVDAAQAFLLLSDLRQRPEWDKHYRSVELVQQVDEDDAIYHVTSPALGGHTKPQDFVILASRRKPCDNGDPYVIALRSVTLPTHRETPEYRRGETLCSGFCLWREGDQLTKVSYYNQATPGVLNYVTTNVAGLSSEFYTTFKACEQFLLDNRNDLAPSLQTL
Experimental: Three buffer changes were performed over the extent of the 18 h dialysis. Post-dialysis reactions were incubated with fresh C14-CoA (25 μM) for 60 min at 22° C. Ebselen (Sigma Aldrich; St. Louis, MO) was used as a (−) control.

Them1-ΔSTART = target: T2, Them1-ΔSTART (Homo sapiens, UniProt Q8WXI4); test: Microscale thermophoresis binding, Them1-ΔSTART; details: for binding to Them1-ΔSTART: in words; for Kd: read-out: Kd, Thioesterase domains (Them1-ΔSTART ), MST, 100 nM labeled protein, 22° C.
T2 sequence (Q8WXI4 43-329 isoform Q8WXI4-2 limits assumed): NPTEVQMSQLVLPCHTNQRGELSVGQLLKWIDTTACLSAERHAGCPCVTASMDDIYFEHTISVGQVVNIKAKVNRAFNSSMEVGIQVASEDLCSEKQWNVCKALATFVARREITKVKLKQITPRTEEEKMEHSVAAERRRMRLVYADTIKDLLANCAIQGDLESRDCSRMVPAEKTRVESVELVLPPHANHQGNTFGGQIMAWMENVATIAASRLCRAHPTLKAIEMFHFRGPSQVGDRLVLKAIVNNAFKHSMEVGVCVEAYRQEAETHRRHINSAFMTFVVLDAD

[3] = test system: primary brown adipocytes cultured from A-Them1Tg mice; test: Oxygen consumption rates (OCR) in primary brown adipocytes; format: cell-based, mouse
Experimental: Primary brown adipocytes from 4- to 6-w old wild type and A-Them1Tg mice were isolated, cultured and differentiated as described (Okada et al., 2016). In brief, BAT tissues harvested from 5- to 7-w old mice were pooled, minced and digested with collagenase B (Sigma-Aldrich; St. Louis, MO), and dispersed in growth medium [DMEM/F12 containing 4.5 g/L glucose, 0.1 mM pyruvate, 10 mM HEPES (Thermo Fisher; Waltham, MA) supplemented with 1% penicillin/streptomycin, 1% GlutaMAX (Thermo Fisher; Waltham, MA) and 20% fetal bovine serum]. […] Upon achieving confluence, pre-adipocytes were induced to differentiate for 8 d by culturing for the first 48 h in differentiation medium [DMEM/F12 containing 4.5 g/L glucose, 0.1 mM pyruvate, 10 mM HEPES (Thermo Fisher; Waltham, MA) supplemented with 1% penicillin/streptomycin, 1% GlutaMAX (Thermo Fisher; Waltham, MA), 10% fetal bovine serum, bovine insulin (5 μg/mL; Thermo Fisher; Waltham, MA) and rosiglitazone (1 μM; Sigma Aldrich; St. Louis, MO)] supplemented with dexamethasone (5 μM; Sigma Aldrich; St. Louis, MO) and 3-isobutyl-1-methylxanthine (0.5 mM; Sigma Aldrich; St. Louis, MO) and differentiation medium thereafter. On differentiation d 6 to 8, the adipocyte differentiation media was supplemented with L-(−)-norepinephrine (+) bitartrate (Calbiochem; EMD Millipore; Billerica, MA). Primary brown adipocytes were maintained in a cell culture incubator at 37° C. with 5% CO2.
In primary brown adipocytes on d 8 of differentiation, values of OCR were measured in the presence or absence of compounds using a Seahorse XF96 extracellular flux analyzer (Agilent Technologies; Santa Clara, CA). […] OCR values were measured before and after the exposure of cells to NE (1 μM) and normalized with total live cell count calculated through staining with NucRed Live probe (Thermo Fisher; Waltham, MA) measured at 715 nm emission and 623 nm excitation using a SpectraMax i3X plate reader (Molecular Devices; San Jose; CA).

primary hepatocytes [4] = test: Glucose production in primary hepatocytes; format: cell-based, mouse; details: compound 33 μM, pyruvate 2 mM, lactate 20 mM
Experimental: as §1
Rates of glucose production were determined as previously described with modifications (Kawano et al., 2014). Primary hepatocytes cultured from wild type, L-Them1Tg and Them1^−/' mice were serum-starved in Medium 199 (Thermo Fisher; Waltham, MA) for 16 h and then washed twice with PBS. […] Glucose concentrations in the media were measured enzymatically through a commercial kit according to the manufacturer's instructions using a NEO plate reader (BioTek, Winooski, VT).

recombinant mouse Them1 = target: T3, recombinant mouse Them1 (Mus musculus, UniProt Q8VHQ9); test: Acot activity assay, mouse Them1; format: biochemical; details: in words (FIG. 6B)
T3 construct: made in house; host or cells: E. coli BL21 (DE3)
T3 sequence (Q8VHQ9 21-594): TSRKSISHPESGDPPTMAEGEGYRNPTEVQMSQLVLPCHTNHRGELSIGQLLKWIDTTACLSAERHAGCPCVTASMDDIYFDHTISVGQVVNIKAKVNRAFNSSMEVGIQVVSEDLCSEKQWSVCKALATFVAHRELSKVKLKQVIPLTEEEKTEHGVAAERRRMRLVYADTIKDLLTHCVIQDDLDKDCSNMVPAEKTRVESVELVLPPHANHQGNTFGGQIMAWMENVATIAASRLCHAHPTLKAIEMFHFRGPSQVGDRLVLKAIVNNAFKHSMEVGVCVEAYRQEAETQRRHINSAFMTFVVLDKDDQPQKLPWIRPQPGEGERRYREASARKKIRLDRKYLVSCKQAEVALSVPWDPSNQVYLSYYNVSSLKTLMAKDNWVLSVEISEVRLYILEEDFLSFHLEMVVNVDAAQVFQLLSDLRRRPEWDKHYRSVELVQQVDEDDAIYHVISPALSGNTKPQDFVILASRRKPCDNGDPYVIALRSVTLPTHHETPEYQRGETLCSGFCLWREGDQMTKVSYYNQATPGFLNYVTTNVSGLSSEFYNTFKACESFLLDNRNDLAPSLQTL
From the text: (Zhang et al., 1999). Values are show in the following Table.

Them1 START domain = target: T4, Them1 START domain (Homo sapiens, UniProt Q8WXI4); test: Microscale thermophoresis binding, START domain; details: in words
T4 sequence (Q8WXI4 339-594 isoform Q8WXI4-2): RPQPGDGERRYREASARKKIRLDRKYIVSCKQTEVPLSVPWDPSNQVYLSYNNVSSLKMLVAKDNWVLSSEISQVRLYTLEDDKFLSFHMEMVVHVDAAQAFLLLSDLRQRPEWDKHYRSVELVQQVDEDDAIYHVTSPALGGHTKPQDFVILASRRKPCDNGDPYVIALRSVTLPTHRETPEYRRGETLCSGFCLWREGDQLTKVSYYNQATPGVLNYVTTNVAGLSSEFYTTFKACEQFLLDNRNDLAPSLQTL

full-length Them1 [5] = target: T5, full-length Them1 (Homo sapiens, UniProt Q8WXI4); test: Microscale thermophoresis binding, full-length Them1; details: in words
T5 sequence (Q8WXI4 14-594 isoform Q8WXI4-2 limits assumed): T1 sequence (Q8WXI4 14-594 isoform Q8WXI4-2 limits assumed)

full-length Them1 [6] = target: T5, full-length Them1; test: biochemical

Chain of full-length human Acot12 (Q8WYK0 whole entry): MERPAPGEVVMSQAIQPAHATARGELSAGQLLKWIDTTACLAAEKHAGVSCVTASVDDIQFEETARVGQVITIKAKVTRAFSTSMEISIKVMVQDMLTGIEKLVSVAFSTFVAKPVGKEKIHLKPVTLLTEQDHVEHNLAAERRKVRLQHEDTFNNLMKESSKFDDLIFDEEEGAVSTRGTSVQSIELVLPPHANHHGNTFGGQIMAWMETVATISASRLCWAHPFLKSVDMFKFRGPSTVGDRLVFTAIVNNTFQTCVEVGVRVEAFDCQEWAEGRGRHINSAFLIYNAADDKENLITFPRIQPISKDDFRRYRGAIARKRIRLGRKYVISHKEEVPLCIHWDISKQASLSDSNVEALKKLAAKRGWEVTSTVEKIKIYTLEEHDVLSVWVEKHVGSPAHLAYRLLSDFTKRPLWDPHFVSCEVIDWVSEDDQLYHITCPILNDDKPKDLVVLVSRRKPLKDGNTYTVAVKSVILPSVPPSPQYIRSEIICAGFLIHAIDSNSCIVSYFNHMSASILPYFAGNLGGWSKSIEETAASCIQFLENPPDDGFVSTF

| Kd (full-length human Acot12) | OCR following palmitate stimulation in Them1−/− hepatocytes (primary hepatocytes [1]) | Them1 activity after overnight dialysis (reversibility of inhibition) [2] | Kd (Them1-ΔSTART) | glucose production in L-Them1Tg hepatocytes (primary hepatocytes [4]) | inhibition of mouse Them1 activity compared to human Them1 (recombinant mouse Them1) | binding affinity to the START domain compared to the parent U1 compound (Them1 START domain) | Kd / binding affinity to full-length Them1 compared to the parent U1 compound (full-length Them1 [5]) | Kd (full-length Them1 [6]) | Compound | CC50 at 48 h (in vitro) | OCR following palmitate stimulation in L-Them1Tg hepatocytes (primary hepatocytes [1]) | binding to Them1-ΔSTART (Them1-ΔSTART) | OCR in A-Them1Tg brown adipocytes, reversal of Them1 suppression ([3]; NE-stimulated, compounds at 10 μM (FIGS. 3B-C, 8B-C)) | OCR in A-Them1Tg brown adipocytes, reversal of Them1 suppression ([3]; compounds at their in vitro IC50 concentrations, 30 min, NE 1 μM, vs wild type (DMSO)) |
| --- | --- | --- | --- | --- | --- | --- | --- | --- | --- | --- | --- | --- | --- | --- |
| > 125 µM | did not increase OCR values | restored Them1 activity | > 125 µM | reduced | comparable potencies |  |  |  | CCOC(=O)N1CCN(C(c2cccs2)c2c(C)[nH]c3ccccc23)CC1 (stereo not drawn) [Compound U1, ethyl 4-((2-methyl-1H-indol-3-yl)(thiophen-2-yl)methyl)piperazine-1-carboxylate] | > 125 µM | reversed this suppressive effect of Them1 | lacked the capacity to bind; also recorded: lacked binding | reversed the suppressive effects of Them1 activity |  |
| > 125 µM |  |  | > 125 µM |  |  | tighter | tighter | 870 nM | Cc1[nH]c2ccccc2c1C(c1cccs1)N1CCN(C(=O)C(C)C)CC1 (stereo not drawn) [Compound U11, 2-methyl-1-(4-((2-methyl-1H-indol-3-yl)(thiophen-2-yl)methyl)piperazin-1-yl)propan-1-one] | > 125 µM |  | did not bind |  | reversed the suppressive effects of Them1 on values of OCR |
